Legend:
[1] = Metabolic stability of [18F]WC-4-138 in mice (percent parent by HPLC); type: in vivo; conditions: C57BL/6J mice
Protocol: In these experiments, the metabolic stability of [^18]-WC-4-138 was assessed after injecting 400 μCi into the tail veins of adult male C57BL/6J mice (Jackson Laboratory). Mice were sacrificed by cervical dislocation 5 or 30 minutes post-injection. […] The plasma was separated from the red blood cells by centrifugation at 14000 rpm. Plasma (100 μl) was mixed with acetonitrile at a 1:1.5 ratio and centrifuged at 14000 rpm. Radioactivity associated with the red blood cell pellet, whole plasma, and acetonitrile-soluble and insoluble fractions was measured. The liver of each animal was also collected at the indicated times and frozen on dry ice. Livers were homogenized in 2 ml acetonitrile and 1 ml of the homogenized liver was centrifuged at 14000 rpm. Radioactivity associated with the supernatant and pellet was measured. Acetonitrile-soluble plasma or liver supernatant (100 μl) was mixed at a 1:1 ratio with water and separated by reverse phase HPLC. The parent compound was also separated by HPLC as a reference. The radioactivity associated with each HPLC fraction was measured. The percent parent compound of each sample was calculated as the portion radioactivity associated with the HPLC fractions expected to contain the parent compound.

[2] = test system: head and neck cell lines SCC1 and SCC25; assay: [18F]WC-4-138 uptake in cell culture, head and neck lines; type: cell-based; conditions: SCC1 and SCC25, incubation 5, 30 or 60 minutes, normalized to protein
Protocol: In these experiments, the head and neck squamous cell carcinoma lines SCC1, SCC15, and SCC25 (ATCC) were propagated in Dulbecco's Modified Eagle's Medium (DMEM, Gibco) supplemented with 10% Fetal Bovine Serum (FBS, Gibco), Penicillin-Streptomycin (P/S, Gibco), and 100 ng/ml hydrocortisone (Sigma-Aldrich). The small cell lung cancer lines NCI-h69 and NCI-h82 (ATCC) were propagated m RPMI Medium (Gibco) supplemented with 10% FBS and 1% P/S. The human breast cancer cell line MDA-MB-231 (ATCC) was propagated in Eagle's Minimum Essential Medium (Gibco) supplemented with 5% FBS, 2% Vitamins for MEM (Gibco), 1% 200 mM L-glutamine (Gibco), 1% 10 mM Non-Essential Amino Acid (NEAA, Gibco).
For each experimental replicate, approximately 1 μCi of [^18F]WC-4-138 was diluted in 1 ml of cell culture medium and added to 10^6 cells. After 5, 30, or 60 minutes, the medium was collected and cells were washed twice in 0.7 ml Phosphate Buffered Saline (PBS, Gibco). Adherent cells were collected by scraping the cell culture dish and transferring to a microfuge tube. Radioactivity was measured in the collected medium, PBS, or cell pellets. Protein from the cell pellet was quantified using a […]. All data were decay-corrected and normalized to total protein quantity in the cell pellet. For drug treatment studies, cells were incubated with 10 μM Olaparib or Iniparib twenty-hours prior to incubation with [^18F]WC-4-138.
The head and neck cell lines SCC1 and SCC25 constitutively take up small amounts of tracer, registering as 0.001-0.002 μCi/μg in the cell pellet (FIG. 5A). […] Radioactivity was measured in head and neck squamous cell cancer (HNSCC) lines (SCC1 and SCC25) or small cell lung cancer (SCLC) lines (NCI-h69 and NCI-h82) after incubation with [^18F]WC-4-138 for 5, 30, or 60 minutes (n=3 at each time point). […] PARP activity was measured in HNSCC or lung SCLC cells. (FIG. 5C-D) [^18F]WC-4-138 uptake was measured in HNSCC cell lines treated with olaparib or iniparib. […]

MDA-MB-231 tumors = assay: microPET imaging with [18F]12, MDA-MB-231 tumors; type: in vivo, mice; conditions: baseline, 60 minute dynamic scan
Protocol: This example illustrates the visualization of tumor tissue in microPET in mice. MDA-MB-436 human breast cancer xenograft tumors in immune-deficient mice were visualized by PET using [^18F]12.
Tumor-bearing mice were placed in an induction chamber containing ˜2% isoflurane/oxygen and then secured to a custom double bed for placement of tail vein catheters; anesthesia was maintained via nose-cone at ˜1% isoflurane/oxygen for the dynamic imaging procedure. The mice were injected with 150-200 μCi of [^18F]12 and scanned for 0-60 min using Focus 220 and Inveon PET/CT scanners. The standard uptake values (SUVs) were generated from manually drawn regions of interests for tumors and surrounding ‘background’ tissue. Visualization of specific uptake was determined by comparison of baseline scans with images acquired by tracer injection 20 minutes after pre-treatment with the blocking agents olaparib (50 mg/kg, IP) or 12 (1 mg/kg, IP).
This example illustrates uptake of Compound 12 ([^18F]WC-4-138) in mice. Mature female athymic nude mice (Charles River Laboratories) were implanted with 10^6 SCC1 cells or 10^7 MDA-MB-231 cells into the mammary fat pads. Mice bearing SCC1 tumors were imaged at 5 weeks and mice bearing MDA-MB-231 cells were imaged at 2.5 weeks after implant. Mice were anesthetized with 2% isoflurane/oxygen and maintained at 1% isoflurane/oxygen via nose cone throughout the imaging procedure. Whole animal microCT images were acquired on an Inveon PET/CT scanner. The mice were injected via tail vein with 11.36±0.5 MBq (307±13 μCi) of [^18F]WC(4)-138 and underwent a 60 minute dynamic scan using Focus 220 or Inveon PET/CT scanners. The microPET and microCT images were coregistered using Integrated Research Workflow software (Siemens). Regions of interest were drawn over tumors to determine time activity curves. For drug treatment studies, animals reached intraperitoneal injections of 50 mg/kg olaparib or iniparib 30 minutes before imaging. Mice were imaged at baseline, or 30 minutes after IP injection of olaparib or iniparib. Arrows indicate location of tumors as identified on CT.
In FIG. 8, mice were imaged at baseline, or 30 minutes after IP injection of olaparib or iniparib. (A) The percent of injected dose per ml was calculated for each MDA/MB-231 tumor at baseline or after drug treatment. […] Tracer uptake was unchanged in iniparib-treated mice (p=0.1098 as determined by a paired t test, n=6 tumors).

In the case of O=C1NCCn2c(-c3ccc(OCC[18F])cc3)nc3cccc1c32 [[^18F]12], the “percent parent compound relative to the reference compound, blood” value ([1]; 5 minutes post-injection) is reported as 50%, the “percent parent compound relative to the reference compound, liver” value ([1]; 5 minutes post-injection) is reported as “about 80%” and the “percent parent compound relative to the reference compound, blood” value ([1]; 30 minutes post-injection) is reported as “about 10%”. For the same compound, the “percent parent compound relative to the reference compound, liver” value ([1]; 30 minutes post-injection) was “about 70%”, the “tracer uptake in the cell pellet” value [2] was 0.001-0.002 μCi/μg and the “tracer uptake in MDA-MB-231 tumors (microPET images)” value (MDA-MB-231 tumors) was “abundantly taken up in tumors”.

— US9993570B2, “Radiolabeled tracers for poly (ADP-ribose) polymerase-1 (PARP-1), methods and uses therefor” (Washington University, priority 2014, dated 2018)
